In EP0321208A1, “Improvements in or relating to avian control” (priority 1987, dated 1989):

Experiments:
feral pigeons [1] = experiment: Three day no-choice feeding test with feral pigeons; format: in vivo; conditions: 0.5% w/w compound/pellet, ± standard deviation; for Mean weight difference: after the test compared with before; for Mean consumption: treated food
Protocol: (§1) Feral pigeons were transferred from a communal outdoor aviary to individual cages and maintained on a 10 hour light - 14 hour dark cycle. Birds were gradually weaned away from their normal diet of maize, wheat and maple peas to a standard laboratory diet of turkey starter pellets.
(§2) The pellets were oven dried and then left to absorb atmospheric moisture. The control food was sprayed with the same volume of acetone/water mixture.
(§3) A group of 35 feral pigeons was caged individually for the trials which used eight compounds of formula (I) together with sucrose octaacetate and dimethyl anthranilate, both of which are substances which are known to be avian repellents. Each bird was subjected to treatment with each compound in a random order subject to the limitation of a latin square design. Each treatment was presented to the birds in no-choice and two-choice conditions. The no-choice phase lasted 3 days, during which a bird was presented with a single bowl containing 120 g of treated food. Each bird was weighed before and after the no-choice phase, as was the amount of food remaining. There immediately followed a two-choice phase in which the birds could choose between food treated with a given chemical and a bowl containing otherwise identical pellets without the chemical (the control treatment utilising two bowls of acetone/water treated pellets, one of which was arbitrarily selected as the control). The two-choice phase lasted four days during which food consumption was monitored daily. The position of the food bowls was alternated each day in order to overcome the confusing of food preference with position preference and ample water and grit were supplied throughout the trial.

pigeon trypsin = experiment: TAME assay: inhibition of pigeon intestinal trypsin activity; format: biochemical; conditions: compound 60 µg/ml; TAME substrate; percentage inhibition of control activity ± standard deviation (n = 3); 5 min
Protocol: (§4) Dried avian intestine powder (500 mg) was extracted for 30 minutes in 1 mM HC₁ (5 ml). The extract was centrifuged at 22,000 x g for 30 minutes at 4°C. The resultant supernatant was applied to a column of Sephadex G-50, medium grade (360 mm x 15 mm) and eluted with 0.5 mM HCl at 0.7 ml/min. Fractions (3.5 ml) were collected and tested for the presence of protein by determining their absorbance at 280 nm. The proteinaceous fractions were bulked and concentrated by passing them through an ultrafiltration unit (YM 30 filter). The concentrate was collected and kept at 4°C throughout its use.
The substrate was prepared by dissolving TAME (19 mg) in a mixture of 100 mM Tris-HCl buffer of pH 7.5 (50 ml) and 5% (w/v) calcium chloride solution (2 ml). The pigeon intestine protease was partially purified as described above prior to testing for trypsin activity. The reaction was carried out in a quartz cuvette (1 x 0.25 x 1 cm³) containing substrate (3 ml) and 100 mM Tris-HCl buffer pH 7.5 (100 µl). The reaction was started by the addition of the partially purified intestine protease (100 µl) and followed by the decrease in absorbance at 247 nm over a 5 minute period.
(§5) In both the chymotrypsin and the trypsin assays a control was however carried out using the 200 µl of buffer containing no added compound.

quail chymotrypsin = experiment: ATEE assay: inhibition of quail intestinal chymotrypsin activity; format: biochemical, Japanese quail; conditions: compound 1 x 10⁻⁵M; ATEE substrate; percentage inhibition of control activity ± standard deviation (n = 3); 5 min, 10 µM
Protocol: The substrate was prepared by dissolving ATEE (10 mg) in Tris-HCl buffer of pH 7.5 containing 30% (v/v) of methanol (25 ml). The quail intestine protease activity was partially purified as described above prior to testing for chymotrypsin activity. The reaction was carried out in a quartz cuvette (1 x 0.25 x 1 cm³) containing substrate (1 ml) and 100 mM Tris-HCl buffer (200 µl). The reaction was started by the addition of the partially purified intestine protease (200 µl) and followed bv the decrease in absorbance at 237 nm over a 5 minute period. All determinations were carried out in triplicate against a reagent blank.

feral pigeons [2] = experiment: Four day two-choice feeding test with feral pigeons; format: in vivo; conditions: for Mean consumption of treated food: four day two-choice, 0.5% w/w compound/pellet; for deterrent effect on food consumption: two-choice test, proportions of treated and untreated food consumed, statement in words
Protocol: as §1, §2, §3
The data obtained in the four day two-choice test is presented in Table 5 for mean consumption of treated food. […]

bullfinch trypsin = experiment: BAEE assay: inhibition of bullfinch intestinal trypsin activity; format: biochemical; conditions: compound 1 x 10⁻⁵M; BAEE substrate; percentage inhibition of control activity ± standard deviation (n = 3); 7 min, 10 µM
Protocol: as §4
The substrate was prepared bv dissolving BAEE (10 mg) in a mixture of 50 mM Tris-HCl buffer of pH 7.5 (24 ml) and 5% (w/v) calcium chloride solution (1 ml). The bullfinch intestine protease activity was partially purified as described above prior to testing for trypsin activity. The reaction was carried out in a quartz cuvette (1 x 0.25 x 1 cm³) containing substrate (1 ml) and 50 mM Tris-HCl buffer (200 µl). The reaction was started by the addition of the partially purified intestine protease 1200 µl) and followed by the decrease in absorbance at 253 nm over a 7 minute period. All determinations were carried out in triplicate against a reagent blank.
as §5

Japanese quail = experiment: No choice feeding trial with Japanese quail; format: in vivo; conditions: 5,000 ppm additive in turkey starter crumbs, 14 days, ± standard deviation
Description: (A) Six week old female japanese quail were preconditoned by weighing them seven days before the start of the feeding trial. Five quail were placed in each of four cages and each cage was provided with a different diet, these being (a) a control diet of standard turkey starter crumbs (TSC), (b) TSC treated with 5,000 ppm cinnamamide, (c) TSC treated with 5,000 ppm 4-hydroxy-3,5-dimethoxycinnamic acid, and (d) TSC treated with 2,500 ppm cinnamamide + 2,500 ppm 4-hydroxy-3,5-dimethoxycinnamic acid. The treated TSC was prepared in each case by dissolving/-suspending the compound or compounds in diethyl ether (1500 ml) and mixing this with TSC (2000 g) at 0.25% or 0.5% w/w concentration compound/TSC in an industrial food mixer for 1 hour to evaporate off the diethyl ether and produce a homogeneous mixture. The control was prepared by mixing TSC (2000 g) with diethyl ether for 1 hour in an industrial food mixer. The amount of each diet consumed and the weight gain of the birds was recorded on a daily basis for a period of 14 days. The trial was carried out in duplicate.
The results of the trial are presented in Table 2, together with the standard deviation. It will be seen that diets (b) and (d) produced a decreased increase in body weight as compared with the control diet (a). It should be appreciated that increased consumption, which apparently occurs with diets (c) and (d), can be the result of a compensation against the occurrence of the enzyme inhibitory effect and a consequent reduction in value of the food consumed.

| Structure (SMILES) | Mean weight difference (feral pigeons [1]) | Mean consumption (feral pigeons [1]) | Inhibition of Activity (pigeon trypsin) | Inhibition of Activity Chymotrypsin (quail chymotrypsin) | Mean consumption of treated food (feral pigeons [2]) | further results |
| --- | --- | --- | --- | --- | --- | --- |
| COc1cc(C=CC(=O)O)cc(OC)c1OC [3,4,5-Trimethoxycinnamic acid] | -1.5 ± 0.9 grams | 53.0 ± 2.1 grams | 0 percentage | 88 ± 2 percentage | 19.8 ± 2.7 grams | deterrent effect on food consumption (feral pigeons [2]): most marked; Inhibition of Activity Trypsin (bullfinch trypsin): 36 ± 1 percentage |
| COc1ccc(C=CC(=O)O)cc1OC [3,4-Dimethoxycinnamic acid] | -1.1 ± 0.9 grams | 55.3 ± 2.3 grams | 16 ± 1 percentage | 83 ± 3 percentage | 27.1 ± 2.8 grams |  |
| COc1cc(C=CC(=O)O)cc(OC)c1 [3,5-Dimethoxycinnamic acid] | -12.9 ± 1.2 grams | 33.1 ± 1.5 grams | 14 ± 1 percentage | 63 ± 1 percentage | 12.1 ± 1.7 grams | deterrent effect on food consumption (feral pigeons [2]): most marked |
| O=C(C=Cc1ccc(O)c(O)c1)OC1CC(O)(C(=O)O)CC(O)C1O (centres unmarked) [3-(3',4'-Dihydroxycinnamoyl)-quinic acid] |  |  | 3 ± 1 percentage |  |  |  |
| O=C(O)C=Cc1cccc(O)c1 [3-Hydroxycinnamic acid] |  |  |  | 43 ± 2 percentage |  |  |
| COc1cccc(C=CC(=O)O)c1 [3-Methoxycinnamic acid] |  |  |  | 56 ± 4 percentage |  |  |
| COc1cc(C(=O)O)cc(OC)c1O [4-Hydroxy-3,5-dimethoxy-benzoic acid, reference compound] |  |  |  | 2 ± 2 percentage |  |  |
| COc1cc(C=CC(=O)O)cc(OC)c1O [4-Hydroxy-3,5-dimethoxy-cinnamic acid, 4-Hydroxy-3,5-dimethoxycinnamic acid] | 2.3 ± 0.9 grams | 60.2 ± 3.3 grams | 16 ± 4 percentage | 94 ± 2 percentage | 29.2 ± 2.8 grams | Inhibition of Activity Trypsin (bullfinch trypsin): 22 ± 2 percentage; Average food eaten (Japanese quail): 21 ± 0.3 g/bird/day; Increase in body weight (Japanese quail): 0.89 ± 0.10 g/bird/day |
| COc1cc(C=CC(=O)O)ccc1O [4-Hydroxy-3-methoxycinnamic acid] | -0.2 ± 1.1 grams | 54.5 ± 2.9 grams | 16 ± 4 percentage |  | 22.7 ± 2.4 grams |  |
| O=C(O)C=Cc1ccc(O)cc1 [4-Hydroxycinnamic acid, 4-hydroxycinnamic acid] |  |  |  | 12 ± 1 percentage |  |  |
| O=C(O)c1ccccc1 [Benzoic acid, reference compound] |  |  |  | 14 ± 1 percentage |  |  |
| O=CC=Cc1ccccc1 [Cinnamaldehyde] |  |  |  | 57 ± 4 percentage |  |  |
| N#CC=Cc1ccccc1 [Cinnamonitrile] |  |  |  | 23 ± 1 percentage |  |  |
| OCC=Cc1ccccc1 [Cinnamyl alcohol] |  |  |  | 20 ± 6 percentage |  |  |
| CNc1ccccc1C(=O)OC [Dimethylanthranilate, Dimethyl anthranilate, reference compound] | -4.8 ± 2.0 grams | 45.9 ± 2.9 grams | 9 ± 2 percentage |  | 18.2 ± 2.4 grams |  |
| O=C(O)CCc1ccccc1 [Hydrocinnamic acid] |  |  |  | 19 ± 3 percentage |  |  |
| O=C(O)Cc1ccccc1 [Phenylacetic acid, reference compound] |  |  |  | 13 ± 2 percentage |  |  |
| CC(=O)OC[C@H]1O[C@@](COC(C)=O)(O[C@H]2O[C@H](COC(C)=O)[C@@H](OC(C)=O)[C@H](OC(C)=O)[C@H]2OC(C)=O)[C@@H](OC(C)=O)[C@@H]1OC(C)=O [Sucrose octaacetate, reference compound] | 2.3 ± 0.9 grams | 54.0 ± 2.6 grams |  |  | 28.6 ± 2.4 grams |  |
| CC(C=O)=Cc1ccccc1 [α-Methylcinnamaldehyde] |  |  |  | 17 ± 5 percentage |  |  |
| CC(=Cc1ccccc1)C(=O)O [α-Methylcinnamic acid] |  |  |  | 36 ± 3 percentage |  |  |
